Results: US20060069132A1, “Azolecarboxamide herbicides” (priority 2004, published 2006)

Columns and labels:
barnyardgrass [1] = assay: Test B pre-/postemergence herbicide test; type: in vivo, Echinochloa crus-galli; details: for Plant response rating (0 to 100 scale), Barnyardgrass: 0 is no effect, 100 is complete control, preemergence; for Barnyardgrass plant response rating: scale 0 (no effect) to 100 (complete control)
Procedure, shortened: (§1)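 Formulation: non-phytotoxic solvent mix with surfactant. Timing: preemergence on seed and postemergence on 2–18 cm plants, applied concurrently. Readout after 13–15 d greenhouse: visual 0–100 control rating against controls.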

Surinam grass = assay: Test B pre-/postemergence herbicide test; type: in vivo, Urochloa decumbens; details: for Plant response rating (0 to 100 scale), Surinam Grass: 0 is no effect, 100 is complete control, preemergence; for Surinam Grass plant response rating: scale 0 (no effect) to 100 (complete control)
Procedure, shortened: as §1

cocklebur = assay: Test B pre-/postemergence herbicide test; type: in vivo, Xanthium strumarium; details: for Plant response rating (0 to 100 scale), Cocklebur: 0 is no effect, 100 is complete control, preemergence; for Cocklebur plant response rating: scale 0 (no effect) to 100 (complete control)
Procedure, shortened: as §1

corn = assay: Test B pre-/postemergence herbicide test; type: in vivo, Zea mays; details: for Plant response rating (0 to 100 scale), Corn: 0 is no effect, 100 is complete control, preemergence; for Corn plant response rating: scale 0 (no effect) to 100 (complete control)
Procedure, shortened: as §1

large crabgrass = assay: Test B pre-/postemergence herbicide test; type: in vivo, Digitaria sanguinalis; details: for Plant response rating (0 to 100 scale), Crabgrass, Large: 0 is no effect, 100 is complete control, preemergence; for Crabgrass, Large plant response rating: scale 0 (no effect) to 100 (complete control)
Procedure, shortened: as §1

giant foxtail = assay: Test B pre-/postemergence herbicide test; type: in vivo, Setaria faberi; details: for Plant response rating (0 to 100 scale), Foxtail, Giant: 0 is no effect, 100 is complete control, preemergence; for Foxtail, Giant plant response rating: scale 0 (no effect) to 100 (complete control)
Procedure, shortened: as §1

lambsquarters = assay: Test B pre-/postemergence herbicide test; type: in vivo, Chenopodium album; details: for Plant response rating (0 to 100 scale), Lambsquarters: 0 is no effect, 100 is complete control, preemergence; for Lambsquarters plant response rating: scale 0 (no effect) to 100 (complete control)
Procedure, shortened: as §1

morningglory = assay: Test B pre-/postemergence herbicide test; type: in vivo, Ipomoea coccinea; details: for Plant response rating (0 to 100 scale), Morningglory: 0 is no effect, 100 is complete control, preemergence; for Morningglory plant response rating: scale 0 (no effect) to 100 (complete control)
Procedure, shortened: as §1

pigweed = assay: Test B pre-/postemergence herbicide test; type: in vivo, Amaranthus retroflexus; details: for Plant response rating (0 to 100 scale), Pigweed: 0 is no effect, 100 is complete control, preemergence; for Pigweed plant response rating: scale 0 (no effect) to 100 (complete control)
Procedure, shortened: as §1

velvetleaf = assay: Test B pre-/postemergence herbicide test; type: in vivo, Abutilon theophrasti; details: for Plant response rating (0 to 100 scale), Velvetleaf: 0 is no effect, 100 is complete control, preemergence; for Velvetleaf plant response rating: scale 0 (no effect) to 100 (complete control)
Procedure, shortened: as §1

blackgrass = assay: Test B postemergence herbicide test; type: in vivo, Alopecurus myosuroides; details: scale 0 (no effect) to 100 (complete control)
Procedure, shortened: (§2)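 Scale 0–100: zero equals no visible effect, 100 complete control, judged by eye relative to controls. Timing: 13 to 15 days in greenhouse post-treatment. Growth stage at spraying: two leaves (paddy) or one to four leaves, 2–18 cm (postemergence).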

wheat = assay: Test B postemergence herbicide test; type: in vivo, Triticum aestivum; design: key to Wheat plant response rating: 0 = no effect, 100 = complete control
Procedure, shortened: (§3)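 Greenhouse test; postemergence application to plants at 1–4 leaves (2–18 cm); paddy species at 2 leaves; evaluated visually vs controls at 13–15 days; scale 0–100 (100 = complete control).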

wild oat = assay: Test B postemergence herbicide test; type: in vivo, Avena fatua; details: scale 0 (no effect) to 100 (complete control)
Procedure, shortened: as §3

rice = assay: Test B flooded paddy test; type: in vivo, Oryza sativa; details: 1000 g ai/ha, scale 0 to 100 (0 no effect, 100 complete control)
Procedure, shortened: as §2

[2] = tested on: small flower umbrella sedge; assay: Test B flooded paddy test; type: in vivo, Cyperus difformis; details: 1000 g ai/ha, scale 0 to 100 (0 no effect, 100 complete control)
Procedure, shortened: as §2

ducksalad = assay: Test B flooded paddy test; type: in vivo, Heteranthera limosa; details: 1000 g ai/ha, scale 0 to 100 (0 no effect, 100 complete control)
Procedure, shortened: as §2

barnyardgrass [3] = assay: Test B flooded paddy test; type: in vivo, Echinochloa crus-galli; details: 1000 g ai/ha, scale 0 to 100 (0 no effect, 100 complete control)
Procedure, shortened: as §2

[4] = 125 g ai/ha, visual rating, postemergence
[5] = 125 g ai/ha, visual rating, scale 0 (no effect) to 100 (complete control), postemergence
[6] = 500 g ai/ha, scale 0 to 100, 0 no effect, 100 complete control, preemergence
[7] = Postemergence, 500 g ai/ha, scale 0 (no effect) to 100 (complete control)

C=CCN(CC=C)C(=O)c1cccc(NC(=O)c2nn(C(C)C)nc2CC)c1 [Compound 390]
0: Plant response rating (0 to 100 scale), Barnyardgrass (barnyardgrass [1]; 125 g ai/ha) | Barnyardgrass plant response rating (barnyardgrass [1]; [4]) | Plant response rating (0 to 100 scale), Surinam Grass (Surinam grass; 125 g ai/ha) | Surinam Grass plant response rating (Surinam grass; [4]) | Plant response rating (0 to 100 scale), Cocklebur (cocklebur; 125 g ai/ha) | Plant response rating (0 to 100 scale), Corn (corn; 125 g ai/ha) | Corn plant response rating (corn; [4]) | Plant response rating (0 to 100 scale), Foxtail, Giant (giant foxtail; 125 g ai/ha) | Plant response rating (0 to 100 scale), Morningglory (morningglory; 125 g ai/ha) | Morningglory plant response rating (morningglory; [4]) | Plant response rating (0 to 100 scale), Pigweed (pigweed; 125 g ai/ha) | Plant response rating (0 to 100 scale), Velvetleaf (velvetleaf; 125 g ai/ha) | Velvetleaf plant response rating (velvetleaf; [4]) | Blackgrass plant response rating (blackgrass; [4]) | Wheat plant response rating (wheat; [5]) | Wheat plant response rating (wheat; [7]) | Oat, Wild plant response rating (wild oat; [4]) | Barnyardgrass plant response rating (barnyardgrass [3])
20: Cocklebur plant response rating (cocklebur; [4]) | Cocklebur plant response rating (cocklebur; Postemergence, 500 g ai/ha) | Corn plant response rating (corn; Postemergence, 500 g ai/ha) | Crabgrass, Large plant response rating (large crabgrass; Postemergence, 500 g ai/ha) | Velvetleaf plant response rating (velvetleaf; Postemergence, 500 g ai/ha)
60: Lambsquarters plant response rating (lambsquarters; [4]) | Lambsquarters plant response rating (lambsquarters; Postemergence, 500 g ai/ha) | Pigweed plant response rating (pigweed; Postemergence, 500 g ai/ha) | Sedge, Umbrella plant response rating [2]
40: Morningglory plant response rating (morningglory; Postemergence, 500 g ai/ha) | Ducksalad plant response rating (ducksalad)
50: Pigweed plant response rating (pigweed; [4])
30: Foxtail, Giant plant response rating (giant foxtail; Postemergence, 500 g ai/ha) | Plant response rating (0 to 100 scale), Lambsquarters (lambsquarters; 125 g ai/ha) | Rice plant response rating (rice)
10: Barnyardgrass plant response rating (barnyardgrass [1]; Postemergence, 500 g ai/ha) | Surinam Grass plant response rating (Surinam grass; Postemergence, 500 g ai/ha) | Plant response rating (0 to 100 scale), Crabgrass, Large (large crabgrass; 125 g ai/ha) | Crabgrass, Large plant response rating (large crabgrass; [4]) | Foxtail, Giant plant response rating (giant foxtail; [4]) | Blackgrass plant response rating (blackgrass; Postemergence, 500 g ai/ha) | Wheat plant response rating (wheat; [6]) | Oat, Wild plant response rating (wild oat; Postemergence, 500 g ai/ha)

COC(=O)c1ccc(F)c(NC(=O)c2nn(C(C)C)nc2C)c1 [Compound 398]
20: Corn plant response rating (corn; Postemergence, 500 g ai/ha) | Foxtail, Giant plant response rating (giant foxtail; [4]) | Morningglory plant response rating (morningglory; Postemergence, 500 g ai/ha) | Velvetleaf plant response rating (velvetleaf; [4])
30: Foxtail, Giant plant response rating (giant foxtail; Postemergence, 500 g ai/ha)
80: Sedge, Umbrella plant response rating [2]
10: Surinam Grass plant response rating (Surinam grass; [4]) | Surinam Grass plant response rating (Surinam grass; Postemergence, 500 g ai/ha) | Cocklebur plant response rating (cocklebur; Postemergence, 500 g ai/ha) | Crabgrass, Large plant response rating (large crabgrass; Postemergence, 500 g ai/ha) | Lambsquarters plant response rating (lambsquarters; [4]) | Lambsquarters plant response rating (lambsquarters; Postemergence, 500 g ai/ha) | Pigweed plant response rating (pigweed; Postemergence, 500 g ai/ha) | Blackgrass plant response rating (blackgrass; Postemergence, 500 g ai/ha) | Wheat plant response rating (wheat; [7]) | Rice plant response rating (rice)
0: Plant response rating (0 to 100 scale), Barnyardgrass (barnyardgrass [1]; 125 g ai/ha) | Barnyardgrass plant response rating (barnyardgrass [1]; [4]) | Barnyardgrass plant response rating (barnyardgrass [1]; Postemergence, 500 g ai/ha) | Plant response rating (0 to 100 scale), Surinam Grass (Surinam grass; 125 g ai/ha) | Plant response rating (0 to 100 scale), Cocklebur (cocklebur; 125 g ai/ha) | Cocklebur plant response rating (cocklebur; [4]) | Plant response rating (0 to 100 scale), Corn (corn; 125 g ai/ha) | Corn plant response rating (corn; [4]) | Plant response rating (0 to 100 scale), Crabgrass, Large (large crabgrass; 125 g ai/ha) | Crabgrass, Large plant response rating (large crabgrass; [4]) | Plant response rating (0 to 100 scale), Foxtail, Giant (giant foxtail; 125 g ai/ha) | Plant response rating (0 to 100 scale), Lambsquarters (lambsquarters; 125 g ai/ha) | Plant response rating (0 to 100 scale), Morningglory (morningglory; 125 g ai/ha) | Morningglory plant response rating (morningglory; [4]) | Plant response rating (0 to 100 scale), Pigweed (pigweed; 125 g ai/ha) | Pigweed plant response rating (pigweed; [4]) | Plant response rating (0 to 100 scale), Velvetleaf (velvetleaf; 125 g ai/ha) | Blackgrass plant response rating (blackgrass; [4]) | Wheat plant response rating (wheat; [5]) | Wheat plant response rating (wheat; [6]) | Oat, Wild plant response rating (wild oat; [4]) | Oat, Wild plant response rating (wild oat; Postemergence, 500 g ai/ha) | Ducksalad plant response rating (ducksalad) | Barnyardgrass plant response rating (barnyardgrass [3])
60: Velvetleaf plant response rating (velvetleaf; Postemergence, 500 g ai/ha)
